37 compounds from ChEMBL document CHEMBL3769364, “Synthesis and structure-activity relationship studies of novel 3,9-substituted α-carboline derivatives with high cytotoxic activity against colorectal cancer cells” (Eur J Med Chem, 2016) can be followed below.

The test system of one assay is A498. Nature of the assay: Cytotoxicity against human A498 cells after 48 hrs by MTT assay. The note with it: A498, 48 h.
A short description of assay [1]: Cytotoxicity against human COLO205 cells after 48 hrs by MTT assay. The settings on record: COLO 205, 48 h. (In general: Tetrazolium dyes change colour on reduction, which living cells bring about.)
Another assay has as its system Detroit 551. Nature of the assay: Cytotoxicity against human Detroit 551 cells after 48 hrs by MTT assay. The settings on record: Detroit 551, 48 h.
Assay [2] can be described thus: Cytotoxicity against human H460 cells after 48 hrs by MTT assay. The settings on record: NCI-H460, 48 h.
Assay [3] in a line: Cytotoxicity against human Hep3B cells after 48 hrs by MTT assay.
Assay [4] can be described thus: Cytotoxicity against human HL60 cells after 48 hrs by MTT assay. The settings on record: HL-60, 48 h.

For orientation: IC50 means the concentration that gives 50% inhibition. A high value points to weaker potency in that assay. In turn, `OCc1cnc2c(c1)c1ccccc1n2Cc1ccc(Cl)cc1Cl` returned an IC50 with A498 above 50 µM.

`OCc1cnc2c(c1)c1ccccc1n2Cc1ccc(F)cc1`: the IC50 (in assay [1]; with A498; in the assay on Detroit 551; in assay [2]; in assay [3]) was above 50 µM throughout.

As for `OCc1cnc2c(c1)c1ccccc1n2Cc1cccs1`, the IC50 (in assay [1]; in the assay on A498; with Detroit 551; in assay [2]; in assay [4]; in assay [3]) was above 50 µM in each case.

In the case of `COC(=O)c1cnc2c(c1)c1ccccc1n2Cc1cccc(Cl)c1`, the IC50 (in assay [1]; in the assay with A498; in the assay with Detroit 551; in assay [3]) was above 50 µM throughout.

`OCc1cnc2c(c1)c1ccccc1n2Cc1ccc(F)c(F)c1`: the IC50 (with A498; in assay [2]; in assay [3]) was above 50 µM throughout.

`COC(=O)c1cnc2c(c1)c1ccccc1n2Cc1ccc2c(c1)OCO2`: the IC50 (in assay [1]; with A498; in the assay with Detroit 551; in assay [2]; in assay [4]; in assay [3]) was above 50 µM in each case.

For `COC(=O)c1cnc2c(c1)c1ccccc1n2Cc1ccccc1`, the IC50 (in assay [1]; with A498; in the assay with Detroit 551; in assay [2]; in assay [4]; in assay [3]) was above 50 µM in each case.

For `COC(=O)c1cnc2c(c1)c1ccccc1n2Cc1ccccc1Cl`, the IC50 (in assay [1]; in the assay with A498; in the assay with Detroit 551; in assay [2]; in assay [3]) was above 50 µM each time.

`OCc1cnc2[nH]c3ccccc3c2c1`: the IC50 with Detroit 551 was above 50 µM; in assay [4], 49.7 µM.

As to `OCc1cnc2c(c1)c1ccccc1n2Cc1ccc(Cl)cc1`, the half-inhibitory concentration (IC50) (in assay [1]; in the assay on A498; in the assay on Detroit 551; in assay [2]) was above 50 µM each time.

In the case of `COC(=O)c1cnc2c(c1)c1ccccc1n2Cc1c(F)cccc1F`, the 50% inhibitory concentration (IC50) (in assay [1]; in the assay on A498; in the assay on Detroit 551; in assay [2]; in assay [4]; in assay [3]) was above 50 µM each time.

Regarding `COC(=O)c1cnc2[nH]c3ccccc3c2c1`, the IC50 (in assay [1]; with Detroit 551; in assay [3]) was above 50 µM throughout.

As for `OCc1cnc2c(c1)c1ccccc1n2Cc1ccsc1`, the 50% inhibitory concentration (IC50) (in assay [1]; in the assay with A498; in the assay on Detroit 551; in assay [2]; in assay [4]) was above 50 µM each time.

As to `COC(=O)c1cnc2c(c1)c1ccccc1n2Cc1cc(OC)c(OC)c(OC)c1`, the IC50 with A498 and in the assay with Detroit 551 was above 50 µM in each case.

For `COC(=O)c1cnc2c(c1)c1ccccc1n2Cc1ccc(Cl)cc1`, the IC50 (in assay [1]; with A498; in the assay on Detroit 551; in assay [2]; in assay [4]; in assay [3]) was above 50 µM throughout.

Consider `OCc1cnc2c(c1)c1ccccc1n2Cc1c(Cl)cccc1Cl`, for which the IC50 (in assay [1]; with A498; in assay [4]) was above 50 µM each time.

With `OCc1cnc2c(c1)c1ccccc1n2Cc1c(F)cccc1F`, the half-inhibitory concentration (IC50) (in assay [1]; with A498; in assay [2]; in assay [3]) was above 50 µM throughout.

As to `COC(=O)c1cnc2c(c1)c1ccccc1n2Cc1ccccc1F`, the IC50 (in assay [1]; in the assay on A498; in the assay with Detroit 551; in assay [2]; in assay [4]; in assay [3]) was above 50 µM throughout.

As to `COC(=O)c1cnc2c(c1)c1ccccc1n2Cc1ccco1`, the 50% inhibitory concentration (IC50) (in assay [1]; in the assay on A498; with Detroit 551; in assay [2]; in assay [4]; in assay [3]) was above 50 µM in each case.

Consider `OCc1cnc2c(c1)c1ccccc1n2Cc1ccoc1`, for which the IC50 (in assay [1]; in the assay on A498; with Detroit 551; in assay [2]; in assay [4]; in assay [3]) was above 50 µM each time.

In the case of `OCc1cnc2c(c1)c1ccccc1n2Cc1ccccc1Cl`, the IC50 in assay [1] was above 50 µM.

As for `OCc1cnc2c(c1)c1ccccc1n2Cc1ccc(Cl)c(Cl)c1`, the IC50 in the assay with Detroit 551 is above 50 µM.

In the case of `COC(=O)c1cnc2c(c1)c1ccccc1n2Cc1cccc(Cl)c1Cl`, the IC50 (in assay [1]; in the assay on A498; with Detroit 551; in assay [2]; in assay [3]) was above 50 µM throughout.

For the compound `COC(=O)c1cnc2c(c1)c1ccccc1n2Cc1ccc(Cl)c(Cl)c1`, the IC50 (in assay [1]; in the assay on A498; in the assay with Detroit 551; in assay [3]) was above 50 µM each time.

For `COc1ccc(Cn2c3ccccc3c3cc(CO)cnc32)cc1`, the IC50 (in the assay on Detroit 551; in assay [2]; in assay [3]) was above 50 µM in each case.

Turning to `OCc1cnc2c(c1)c1ccccc1n2Cc1ccc2c(c1)OCO2`, the IC50 (in assay [1]; with A498; in assay [2]; in assay [3]) was above 50 µM in each case.

In the case of `COc1cc(Cn2c3ccccc3c3cc(C(=O)O)cnc32)cc(OC)c1`, the IC50 in assay [1] is above 50 µM; in the assay on Detroit 551 it was above 100 µM; in assay [2] it was above 50 µM.

In the case of `COC(=O)c1cnc2c(c1)c1ccccc1n2Cc1cccc(OC)c1`, the IC50 (in assay [1]; in the assay with A498; in the assay on Detroit 551) was above 50 µM in each case.

Regarding `COc1cc(Cn2c3ccccc3c3cc(C(=O)O)cnc32)cc(OC)c1OC`, the IC50 (with Detroit 551; in assay [4]) was above 50 µM each time.

`COc1cc(Cn2c3ccccc3c3cc(CO)cnc32)cc(OC)c1` came in with an IC50 with Detroit 551 above 50 µM.

With `OCc1cnc2c(c1)c1ccccc1n2Cc1ccccc1`, in the assay on A498, the IC50 is above 50 µM.

In the assay with Detroit 551, `COc1cccc(Cn2c3ccccc3c3cc(CO)cnc32)c1` displayed an IC50 above 50 µM.

Turning to `COC(=O)c1cnc2c(c1)c1ccccc1n2Cc1ccc(OC)cc1`, the IC50 (in assay [1]; in the assay on A498; in assay [2]; in assay [4]; in assay [3]) was above 50 µM each time.

Turning to `OCc1cnc2c(c1)c1ccccc1n2Cc1ccc(F)cc1F`, the IC50 (in the assay with A498; in the assay with Detroit 551; in assay [2]; in assay [3]) was above 50 µM throughout.

For `COC(=O)c1cnc2c(c1)c1ccccc1n2Cc1cc(F)ccc1F`, the IC50 (in assay [1]; in the assay on A498; in assay [2]; in assay [3]) was above 50 µM in each case.

`COC(=O)c1cnc2c(c1)c1ccccc1n2Cc1ccc(F)c(F)c1`: the IC50 (in assay [1]; in the assay with A498; in assay [2]; in assay [3]) was above 50 µM in each case.

In the assay with A498, `COC(=O)c1cnc2c(c1)c1ccccc1n2Cc1cc(OC)cc(OC)c1` showed a half-inhibitory concentration (IC50) above 50 µM.
